System: pads of fat near the waist ("love handles")
Conditions: patient; niacin 500 mg rising to 1500 mg/day orally by tablet over 14 days; 635 nm diode laser, max 10 mW, 30 min scanning sessions

O=C(O)c1cccnc1 [niacin, nicotinic acid]
Fat reduction: love handles after treatment: reduced

Reference: US20110295187A1 (Erchonia Corporation, priority 2004, published 2011)
